The values below come from patent publication US8952005B2, “Substituted 1,3-benzothiazol-2(3H)-ones and [1,3]thiazolo[5,4-B]pyridin-2(1H)-ones as positive allosteric modulators of mGluR2” (Merck Sharp & Dohme Corp., priority 2010, dated 2015).

T1 sequence (Q14416 19-872): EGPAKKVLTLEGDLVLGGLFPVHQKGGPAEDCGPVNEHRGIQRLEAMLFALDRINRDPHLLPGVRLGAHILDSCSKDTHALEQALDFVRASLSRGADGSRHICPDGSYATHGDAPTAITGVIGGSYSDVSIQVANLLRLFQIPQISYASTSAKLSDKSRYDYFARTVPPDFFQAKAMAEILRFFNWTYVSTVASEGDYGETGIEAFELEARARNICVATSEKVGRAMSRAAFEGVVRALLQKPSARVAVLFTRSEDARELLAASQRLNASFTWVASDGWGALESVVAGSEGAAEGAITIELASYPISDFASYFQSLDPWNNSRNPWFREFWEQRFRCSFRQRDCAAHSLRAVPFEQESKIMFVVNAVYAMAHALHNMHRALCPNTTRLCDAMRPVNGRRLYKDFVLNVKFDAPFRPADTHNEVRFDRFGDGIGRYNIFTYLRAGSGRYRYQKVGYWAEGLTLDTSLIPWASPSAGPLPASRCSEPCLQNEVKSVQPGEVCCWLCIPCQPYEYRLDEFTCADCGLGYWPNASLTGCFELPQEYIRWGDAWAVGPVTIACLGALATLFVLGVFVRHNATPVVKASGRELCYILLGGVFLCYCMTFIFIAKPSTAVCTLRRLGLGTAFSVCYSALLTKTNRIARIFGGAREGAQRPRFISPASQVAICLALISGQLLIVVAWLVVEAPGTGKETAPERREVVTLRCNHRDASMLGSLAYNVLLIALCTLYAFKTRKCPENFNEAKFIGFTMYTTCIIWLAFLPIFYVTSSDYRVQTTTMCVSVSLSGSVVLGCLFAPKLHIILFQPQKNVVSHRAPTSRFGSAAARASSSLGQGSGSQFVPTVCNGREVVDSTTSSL

The test addresses T1, recombinant human mGluR2 (Homo sapiens, UniProt Q14416).
T1 construct: expressed in transfected cells
The experiment in a line: FLIPR Ca2+ mobilization assay, potentiation of glutamate response at mGluR2. The note with it: potentiation after addition of EC20 concentration of glutamate (900 nM); CHO dhfr- cells expressing human mGluR2 and Gα16. It is filed as cell-based. As for the experimental part: Inhibition constants are determined as follows. The compounds of the present invention may be tested in a fluorescence laser imaging plate reader (FLIPR) based assay. This assay is a common functional assay to monitor Ca^2+ mobilization in whole cells expressing recombinant receptor coupled with a promiscuous G-protein. CHO dhfr− cells stably expressing recombinant human mGluR2 and Gα16 loaded with Fluo-4 AM (Invitrogen, Carlsbad Calif.) are treated with dose responses of compounds and the Ca^2+ response is monitored on a FLIPR384 (Molecular Devices, Sunnydale Calif.) for agonist activity. The potentiation response is monitored after a subsequent addition of an EC20 concentration of glutamate (900 nM). The maximum calcium response at each concentration of compound for agonist or potentiation are plotted as dose responses and the curves are fitted with a four parameters logistic equation giving EC50 and Hill coefficient using the iterative non linear curve fitting software program.
A general note: Calcium flux is commonly read through the fluorescence of an indicator in the cells.
As a reminder, the EC50 is the concentration at which the effect is half-maximal. Turning to `Cc1ccc(C(C)(C)O)cc1-c1ccc2c(n1)sc(=O)n2CC1CC1(F)F` (stereo not shown) [Example 2-3, 1-{[2,2-difluorocyclopropyl]methyl}-5-[5-(1-hydroxy-1-methylethyl)-2-methylphenyl][1,3]thiazolo[5,4-b]pyridin-2(1H)-one], the EC50 turned out to be 153 nM.
The same measure for `CC(C)(C)Cn1c(=O)sc2nc(-c3ccccc3C#N)ccc21` [Example 3-2, 2-[1-(2,2-dimethylpropyl)-2-oxo-1,2-dihydro[1,3]thiazolo[5,4-b]pyridin-5-yl]benzonitrile]: 34 nM.
On to `N#Cc1ccccc1-c1ccc2c(c1)sc(=O)n2CC1CC1(F)F` (stereo not shown) [Example 5-2, 2-(3-{[2,2-difluorocyclopropyl]methyl}-2-oxo-2,3-dihydro-1,3-benzothiazol-6-yl)benzonitrile], for which the EC50 worked out at 17 nM.
In the case of `O=c1sc2cc(-c3cccc(N4CCS(=O)(=O)CC4)c3)ccc2n1CC1CC1` [Example 6-16, 3-(cyclopropylmethyl)-6-[3-(1,1-dioxidothiomorpholin-4-yl)phenyl]-1,3-benzothiazol-2(3H)-one], the 50% effective concentration (EC50) is 65 nM.
For the compound `N#Cc1ccccc1-c1ccc2c(c1)sc(=O)n2Cc1ccc(Cl)cc1F` [Example 9-15, 2-[3-(4-chloro-2-fluorobenzyl)-2-oxo-2,3-dihydro-1,3-benzothiazol-6-yl]benzonitrile], the EC50 amounted to 248 nM.
On to `N#Cc1cc(Oc2ccc(C#N)c(-c3ccc4c(n3)sc(=O)n4CC3CC3(F)F)c2)ccn1` (stereo not shown) [Example 16-3, 4-(4-cyano-3-{1-[(2,2-difluorocyclopropyl)methyl]-2-oxo-1,2-dihydro[1,3]thiazolo[5,4-b]pyridin-5-yl}phenoxy)pyridine-2-carbonitrile], for which the half-maximal effective concentration (EC50) is 15 nM.
For the compound `N#Cc1cccnc1Oc1ccc2c(c1)sc(=O)n2CC1CC1(F)F` (stereo not shown) [Example 18-3, 2-({3-[(2,2-difluorocyclopropyl)methyl]-2-oxo-2,3-dihydro-1,3-benzothiazol-6-yl}oxy)nicotinonitrile], the concentration giving a half-maximal response (EC50) was determined as 306 nM.
